Test results as given in ChEMBL document CHEMBL4483862, “Open-source discovery of chemical leads for next-generation chemoprotective antimalarials” (2018).

Test system: Plasmodium berghei
Assay: Luciferase/luciferin-expressing antifolate-resistant parasites were used to infect a culture of HepG2 cells that were pre-incubated with compounds. Infected hepatocytes emit light due to the luciferase reaction. Assay results are presented as the percent inhibition of light emission compared to control. […]
Type: functional
Settings: sporozoite; for IC90: read-out: LUCIFERASE INFECTION ASSAY - IC90

With `C=CCN(CC(=O)NC1CCS(=O)(=O)C1)S(=O)(=O)c1ccccc1C(F)(F)F` (centres undefined) the IC50 (FFLUC_HILL_SLOPE 0.888, FFLUC_R_SQUARED 0.174, read-out: LUCIFERASE INFECTION ASSAY - IC50) was over 10 µM and the IC90 was over 10 µM.
`COc1ccc(Oc2sccc2[N+](=O)[O-])cc1` showed an IC50 (FFLUC_HILL_SLOPE 0.766, FFLUC_R_SQUARED 0.0624, read-out: LUCIFERASE INFECTION ASSAY - IC50) of over 13.1 µM and an IC90 of over 13.1 µM.
Compound `COC(=O)c1c(C)[nH]c(C(=O)Nc2ccc(C)cn2)c1C` has an IC50 (FFLUC_HILL_SLOPE 0.774, FFLUC_R_SQUARED 0.984, PBLUC_HILL_SLOPE 0.487, PBLUC_R_SQUARED 0.641, read-out: LUCIFERASE INFECTION ASSAY - IC50) of 0.0288 µM and an IC90 of 2.63 µM.
`O=C(N/N=C/c1c(-c2ccccc2)nc2sc3c(n12)CCCC3)c1ccccc1` showed an IC50 (FFLUC_HILL_SLOPE 0.805, FFLUC_R_SQUARED 0.757, PBLUC_HILL_SLOPE 1.27, PBLUC_R_SQUARED 0.855, read-out: LUCIFERASE INFECTION ASSAY - IC50) of 0.153 µM and an IC90 of 0.858 µM.
With `O=S(=O)(c1ccc(Cl)s1)N1CCC(C(c2ccccc2)c2ccccc2)CC1` the IC50 (FFLUC_HILL_SLOPE 0.891, FFLUC_R_SQUARED 0.199, PBLUC_HILL_SLOPE 11.4, PBLUC_R_SQUARED 0.0957, read-out: LUCIFERASE INFECTION ASSAY - IC50) was over 7.64 µM and the IC90 was over 7.64 µM.
With `CSc1c(C#N)c(-c2cc(C(C)(C)C)oc2C)nn1-c1ccc(I)cc1` the IC50 (FFLUC_HILL_SLOPE 0.81, FFLUC_R_SQUARED 0.431, read-out: LUCIFERASE INFECTION ASSAY - IC50) was over 6.91 µM and the IC90 was over 6.91 µM.
`CC(C)CN(C(=O)c1ccc(N2CCCC2)c([N+](=O)[O-])c1)c1nc2ccccc2s1` was tested, and the IC50 (FFLUC_HILL_SLOPE 0.859, FFLUC_R_SQUARED 0.184, HEPG2TOX_HILL_SLOPE 0.259, HEPG2TOX_R_SQUARED 0.321, PBLUC_HILL_SLOPE 3.83, PBLUC_R_SQUARED 0.838, read-out: LUCIFERASE INFECTION ASSAY - IC50) was 0.336 µM and the IC90 was 0.595 µM.
In the case of `CO/N=C1\CC(C)(C)Cc2c(-c3ccn(S(=O)(=O)c4ccc(Cl)cc4)n3)sc(SC)c21`, the IC50 (FFLUC_HILL_SLOPE 0.891, FFLUC_R_SQUARED 0.151, read-out: LUCIFERASE INFECTION ASSAY - IC50) is reported as over 6.65 µM and the IC90 is reported as over 6.65 µM.
Compound `CCCCNC(=O)c1c(NC(=O)c2ccc(Cl)cc2Cl)nc2ccc(C)cn12` has an IC50 (FFLUC_HILL_SLOPE 0.85, FFLUC_R_SQUARED 0.0513, HEPG2TOX_HILL_SLOPE 0.9, HEPG2TOX_R_SQUARED 0.94, PBLUC_HILL_SLOPE 2.97, PBLUC_R_SQUARED 0.791, read-out: LUCIFERASE INFECTION ASSAY - IC50) of 0.826 µM and an IC90 of 1.73 µM.
In the case of `NS(=O)(=O)c1ccc(Nc2nc(-c3cc(F)ccc3F)cs2)cc1`, the IC50 (FFLUC_HILL_SLOPE 0.845, FFLUC_R_SQUARED 0.288, PBLUC_HILL_SLOPE 13.0, 1.97, PBLUC_R_SQUARED 0.591, 0.616, read-out: LUCIFERASE INFECTION ASSAY - IC50) is reported as 8.85 µM and the IC90 is reported as over 10 µM.
For `O=C(Nc1ccc(-c2nc3ccccc3[nH]2)cc1)C1CCC1`, the IC50 (FFLUC_HILL_SLOPE 0.826, FFLUC_R_SQUARED 0.895, PBLUC_HILL_SLOPE 0.293, PBLUC_R_SQUARED 0.545, read-out: LUCIFERASE INFECTION ASSAY - IC50) was 0.543 µM and the IC90 was over 10 µM.
`COc1cc(-c2cc(NCc3cccc(C(F)(F)F)c3)ncn2)cc(OC)c1OC` gave an IC50 (FFLUC_HILL_SLOPE 0.883, FFLUC_R_SQUARED 0.362, PBLUC_HILL_SLOPE 0.944, PBLUC_R_SQUARED 0.459, read-out: LUCIFERASE INFECTION ASSAY - IC50) of 0.859 µM and an IC90 of over 7.87 µM.
In the case of `COc1ccc2c(c1)C(=O)C(=O)N2Cc1ccccc1Cl`, the IC50 (FFLUC_HILL_SLOPE 0.896, FFLUC_R_SQUARED 0.182, read-out: LUCIFERASE INFECTION ASSAY - IC50) is reported as over 10.9 µM and the IC90 is reported as over 10.9 µM.
`CC1=Nn2cc(-c3ccccc3)nc2SC1c1ccccc1` (centres undefined) was tested, and the IC50 (FFLUC_HILL_SLOPE 0.814, FFLUC_R_SQUARED 0.91, PBLUC_HILL_SLOPE 0.719, PBLUC_R_SQUARED 0.79, read-out: LUCIFERASE INFECTION ASSAY - IC50) was 0.084 µM and the IC90 was 1.79 µM.
With `CCn1c(-c2ccccc2)c(C(=O)CSc2nnc(N)[nH]2)c2ccccc21` the IC50 (FFLUC_HILL_SLOPE 0.751, FFLUC_R_SQUARED 0.0256, read-out: LUCIFERASE INFECTION ASSAY - IC50) was over 10 µM and the IC90 was over 10 µM.
With `CC(C)n1c(Sc2ncc([N+](=O)[O-])s2)nc2cc(C(F)(F)F)ccc21` the IC50 (FFLUC_HILL_SLOPE 0.818, FFLUC_R_SQUARED 0.623, HEPG2TOX_HILL_SLOPE 9.88, HEPG2TOX_R_SQUARED 0.799, PBLUC_HILL_SLOPE 37.4, PBLUC_R_SQUARED 0.0575, read-out: LUCIFERASE INFECTION ASSAY - IC50) was 5.8 µM and the IC90 was 6.15 µM.
In the case of `CC(=O)c1c(C)[nH]c(C(=O)Nc2nc3ccccc3[nH]2)c1C`, the IC50 (FFLUC_HILL_SLOPE 0.837, FFLUC_R_SQUARED 0.9, PBLUC_HILL_SLOPE 0.352, PBLUC_R_SQUARED 0.709, read-out: LUCIFERASE INFECTION ASSAY - IC50) is reported as 0.0695 µM and the IC90 is reported as over 10 µM.
`Cc1cc(C(=O)CSc2nnc3n2CCCCC3)c(C)n1-c1ccccc1` was tested, and the IC50 (FFLUC_HILL_SLOPE 0.849, FFLUC_R_SQUARED 0.0339, PBLUC_HILL_SLOPE 12.7, PBLUC_R_SQUARED 0.127, read-out: LUCIFERASE INFECTION ASSAY - IC50) was 9.31 µM and the IC90 was over 10 µM.
`Cc1c(C)n(CCCO)c2ncn3nc(COc4ccccc4)nc3c12` showed an IC50 (FFLUC_HILL_SLOPE 0.782, FFLUC_R_SQUARED 0.957, PBLUC_HILL_SLOPE 0.808, PBLUC_R_SQUARED 0.882, read-out: LUCIFERASE INFECTION ASSAY - IC50) of 0.0238 µM and an IC90 of 0.36 µM.
In the case of `Nc1ncnc(N/N=C/c2ccc(C3=CCCC3)s2)c1[N+](=O)[O-]`, the IC50 (FFLUC_HILL_SLOPE 0.804, FFLUC_R_SQUARED 0.918, PBLUC_HILL_SLOPE 0.696, PBLUC_R_SQUARED 0.659, read-out: LUCIFERASE INFECTION ASSAY - IC50) is reported as 0.463 µM and the IC90 is reported as over 10 µM.
`Cc1ccc(C)c(-n2c(SC(C)c3nc(N)nc(N(C)C)n3)nc3ccccc3c2=O)c1` (centres undefined) was tested, and the IC50 (FFLUC_HILL_SLOPE 0.719, FFLUC_R_SQUARED 0.145, PBLUC_HILL_SLOPE 15.9, PBLUC_R_SQUARED 0.219, read-out: LUCIFERASE INFECTION ASSAY - IC50) was 9.47 µM and the IC90 was over 10 µM.
With `C#Cc1cccc(NC(=O)c2ccc(C(C)(C)C)s2)c1` the IC50 (FFLUC_HILL_SLOPE 0.741, FFLUC_R_SQUARED 0.211, PBLUC_HILL_SLOPE 2.38, PBLUC_R_SQUARED 0.594, read-out: LUCIFERASE INFECTION ASSAY - IC50) was 3.28 µM and the IC90 was 8.24 µM.
`CS(=O)(=O)c1ccccc1NC(=O)COC(=O)c1cccnc1N` was tested, and the IC50 (FFLUC_HILL_SLOPE 0.757, FFLUC_R_SQUARED 0.634, read-out: LUCIFERASE INFECTION ASSAY - IC50) was over 10 µM and the IC90 was over 10 µM.
`Cc1c(OCC(=O)Nc2ccccc2)ccc2c1OC(C)(C)C=C2` showed an IC50 (FFLUC_HILL_SLOPE 0.847, FFLUC_R_SQUARED 0.632, PBLUC_HILL_SLOPE 1.69, PBLUC_R_SQUARED 0.702, read-out: LUCIFERASE INFECTION ASSAY - IC50) of 0.216 µM and an IC90 of 0.79 µM.
`N#C/C(=C\Nc1cc(C(F)(F)F)cc(C(F)(F)F)c1)S(=O)(=O)c1ccccc1` gave an IC50 (FFLUC_HILL_SLOPE 0.883, FFLUC_R_SQUARED 0.592, HEPG2TOX_HILL_SLOPE 1.61, HEPG2TOX_R_SQUARED 0.979, PBLUC_HILL_SLOPE 2.79, PBLUC_R_SQUARED 0.181, read-out: LUCIFERASE INFECTION ASSAY - IC50) of 4.35 µM and an IC90 of over 7.85 µM.
`O=C(NCCC1=CCCCC1)c1cccc(N2CCCC2=O)c1` was tested, and the IC50 (FFLUC_HILL_SLOPE 0.738, FFLUC_R_SQUARED 0.473, PBLUC_HILL_SLOPE 0.427, PBLUC_R_SQUARED 0.183, read-out: LUCIFERASE INFECTION ASSAY - IC50) was over 10 µM and the IC90 was over 10 µM.
Work on `CCc1cn(Cc2ccccc2)c[n+]1Cc1ccccc1` yielded an IC50 (FFLUC_HILL_SLOPE 0.817, FFLUC_R_SQUARED 0.751, PBLUC_HILL_SLOPE 3.02, PBLUC_R_SQUARED 0.429, read-out: LUCIFERASE INFECTION ASSAY - IC50) of 5.71 µM and an IC90 of over 10.5 µM.
For `CC(C)OCCCn1c(S/C=C/c2ccc([N+](=O)[O-])o2)nc2ccccc2c1=O`, the IC50 (FFLUC_HILL_SLOPE 0.75, FFLUC_R_SQUARED 0.0694, read-out: LUCIFERASE INFECTION ASSAY - IC50) was over 10 µM and the IC90 was over 10 µM.
With `CSc1ccc(C2=NNC(=NC3CC3)SC2)cc1` the IC50 (FFLUC_HILL_SLOPE 0.857, FFLUC_R_SQUARED 0.948, PBLUC_HILL_SLOPE 0.604, PBLUC_R_SQUARED 0.771, read-out: LUCIFERASE INFECTION ASSAY - IC50) was 0.467 µM and the IC90 was over 10 µM.
With `Cc1oc2[nH]cnc(=O)c2c1C(=O)Nc1ccccc1Cc1ccccc1` the IC50 (FFLUC_HILL_SLOPE 0.892, FFLUC_R_SQUARED 0.572, PBLUC_HILL_SLOPE 0.52, PBLUC_R_SQUARED 0.732, read-out: LUCIFERASE INFECTION ASSAY - IC50) was 2.73 µM and the IC90 was over 10 µM.
`COc1cc(/C=N/NC(=S)Nc2ccccc2OC)ccc1O` showed an IC50 (FFLUC_HILL_SLOPE 0.707, FFLUC_R_SQUARED 0.581, PBLUC_HILL_SLOPE 0.242, PBLUC_R_SQUARED 0.281, read-out: LUCIFERASE INFECTION ASSAY - IC50) of over 9.96 µM and an IC90 of over 9.96 µM.
With `CCOC(=O)c1c(-c2ccccc2)oc2ccc(NS(=O)(=O)c3ccc(CC)cc3)cc12` the IC50 (FFLUC_HILL_SLOPE 0.825, FFLUC_R_SQUARED 0.206, HEPG2TOX_HILL_SLOPE 3.18, HEPG2TOX_R_SQUARED 0.941, PBLUC_HILL_SLOPE 22.5, PBLUC_R_SQUARED 0.586, read-out: LUCIFERASE INFECTION ASSAY - IC50) was 8.65 µM and the IC90 was 9.53 µM.
